Laboratory results as given in patent US6800674B2, “Anthraquinone compound and water-based ink-jet recording ink containing the compound” (Mitsui Chemicals, Inc., priority 2000, dated 2004).

Tests used:
Format in all cases: physicochemical
[1] = Evaluation of water resistance (OD1 after/before dipping in water); conditions: aqueous ink, OD1 after dipping in water and air-drying
Description: (§1) Glycerin and water were added to the dispersion (A) of colored resin fine particles to obtain aqueous ink having a solid content of 15% by weight. This aqueous ink was used, and filled in an ink cartridge for a piezo-type ink jet printer, and printing and image recording were conducted with the same printer. The test was conducted on the following items.
(D) Evaluation of Water Resistance
With respect to a printed portion of a plain paper having a recorded image thereon for test, printing density (OD value) was measured with a reflection densitometer before dipping in water and after dipping in water and air-drying. Water resistance was evaluated upon comparing OD1.
OD1=(OD value after dipping in water and air-drying)/(OD value before dipping in water)×100[%]

[2] = Evaluation of light fastness (xenon fadeometer, OD2); conditions: for E (Evaluation of light fastness): aqueous ink, ink production process Example 1, OD2 after 100 hours of irradiation
Description: as §1
(E) Evaluation of Light Fastness
Printing density (OD value) was measured using a xenon fadeometer (manufactured by Suga Shikenki) before irradiation and after 100 hours of irradiation. Light fastness was evaluated upon comparing OD2.
OD2=(OD value after irradiation)/(OD value before irradiation)×100[%]

[3] = as above; conditions: aqueous ink, ink production process Example 2; OD2 after 100 hours of irradiation
[4] = Solvent solubility of the coloring matter; conditions: for solubility of the coloring matter (in words): ink produced as in Example 1
[5] = Evaluation of emulsification (visual, in production of emulsion ink); conditions: ink produced as in Example 1
Description: as §1
(A) Evaluation of Emulsification
The emulsification condition in the production of emulsion ink was visually observed, and evaluated.

[6] = Absorption in toluene solution
[7] = ink production process Example 1
[8] = ink production process Example 2

Compound | D (Evaluation of water resistance) [1, 7] | D (Evaluation of water resistance) [1, 8] | E (Evaluation of light fastness) [2] | E (Evaluation of light fastness) [3] | light fastness (in words) [2] | solubility of the coloring matter (in words) [4] | evaluation of emulsification (in words) [5] | solubility in toluene ([4]; toluene, room temperature) [%] | gram absorption coefficient (εg) [6] | maximum absorption wavelength (λmax) [6] [nm]
CCCN(CCC)c1cccc(Oc2cc(O)c3c(c2N)C(=O)c2ccccc2C3=O)c1 [compound 8] | ⊚⊚ (OD value is 90 to 100%.) | ⊚⊚ (OD value is 90 to 100%.) | ⊚⊚ (OD value is 90 to 100%.) | ⊚⊚ (OD value is 90 to 100%.) |  |  |  |  |  | 
CNc1cccc2c1C(=O)c1ccccc1C2=O [Comparative Example 3, reference compound] | ◯ (OD value is 70 to less than 80%.) |  | X (OD value is less than 50%.) |  | extremely bad | low |  |  |  | 
CCCCCCN(CCCCCC)c1cccc(Oc2cc(O)c3c(c2N)C(=O)c2cccc(C)c2C3=O)c1 [compound 18] | ⊚⊚ (OD value is 90 to 100%.) | ⊚⊚ (OD value is 90 to 100%.) | ⊚⊚ (OD value is 90 to 100%.) | ⊚⊚ (OD value is 90 to 100%.) |  |  |  |  |  | 
O=C1c2ccccc2C(=O)c2c1ccc(O)c2O [Comparative Example 1, reference compound] | X (OD value is less than 50%.) |  | X (OD value is less than 50%.) |  |  | low | poor emulsification |  |  | 
CCCCN(CCCC)c1cccc(Oc2cc(O)c3c(c2N)C(=O)c2ccccc2C3=O)c1 [compound 9] | ⊚⊚ (OD value is 90 to 100%.) | ⊚⊚ (OD value is 90 to 100%.) | ⊚⊚ (OD value is 90 to 100%.) | ⊚⊚ (OD value is 90 to 100%.) |  |  |  | ≥ 40 | 30,200 ml/g·cm | 517
Nc1c(Oc2ccc(C(c3ccccc3)c3ccccc3)cc2)cc(O)c2c1C(=O)c1ccccc1C2=O [compound 12] | ⊚ (OD value is 80 to less than 90%.) | ⊚ (OD value is 80 to less than 90%.) | ◯ (OD value is 70 to less than 80%.) | ◯ (OD value is 70 to less than 80%.) |  |  |  |  |  | 
CCc1ccc2c(c1)C(=O)c1c(O)cc(Oc3cccc(N(CC)CC)c3)c(N)c1C2=O [compound 15] | ⊚⊚ (OD value is 90 to 100%.) | ⊚⊚ (OD value is 90 to 100%.) | ⊚ (OD value is 80 to less than 90%.) | ⊚ (OD value is 80 to less than 90%.) |  |  |  |  |  | 
CCCCCCN(CCCCCC)c1cccc(Oc2cc(O)c3c(c2N)C(=O)c2ccccc2C3=O)c1 [compound 10] | ⊚⊚ (OD value is 90 to 100%.) | ⊚⊚ (OD value is 90 to 100%.) | ⊚⊚ (OD value is 90 to 100%.) | ⊚⊚ (OD value is 90 to 100%.) |  |  |  |  |  | 
COc1cc(N)c2c(c1N)C(=O)c1ccccc1C2=O [Comparative Example 2, reference compound] | Δ (OD value is 50 to less than 70%.) |  | X (OD value is less than 50%.) |  | extremely bad | low |  |  |  | 
